Data on 1 compound can be found in ChEMBL document CHEMBL5543153, “Discovery of a Potent Dual Son of Sevenless 1 (SOS1) and Epidermal Growth Factor Receptor (EGFR) Inhibitor for the Treatment of Prostate Cancer” (J Med Chem, 2024).

Data set [1] is described as follows: Toxicity in BALB/c mouse xenografted with human PC-3 cells assessed as change in creatinine level at 20 mg/kg,ip administrated once every 4 days for 24 days by automatic biochemical analyzer. Format: organism-based. The conditions noted are these: in vivo, 576 h, time 24 day.
For data set [2], the target named is T1, Epidermal growth factor receptor (Homo sapiens, UniProt P00533). Nature of the data set: Inhibition of EGFR (unknown origin) using ultra ULight GT peptide as substrate incubated for 2 hrs.
The target in data set [3] is T1, Epidermal growth factor receptor. Nature of the data set: Inhibition of EGFR in human PC-3 cells assessed as downregulation of EGF-mediated AKT phosphorylation at 0.5 uM incubated for 15 mins in presence of EGF by Western blotting analysis. Format: cell-based.
Data set [4] has as its system A-427. Nature of the data set: Antiproliferative activity against human A-427 cells harboring KRAS G12D mutant assessed as inhibition of cell growth incubated for 72 hrs by MTT assay. Type of data set: functional, cell-based. The conditions noted are these: A-427, 72 h.
In data set [5] the test system is PC-3. Briefly: Antitumor activity against human PC-3 cells xenografted in BALB/c mouse assessed as reduction in tumor weight at 5 mg/kg,ip administrated once every 4 days for 24 days. To be noted: time 24.0 day. Format: functional, organism-based.
For data set [6], the system named is PC-3. Nature of the data set: Induction of apoptosis in human PC-3 cells assessed as late apoptotic cells at 12.5 uM by Annexin V-FITC staining based flow cytometry (reference value: 1.93%). Type of data set: functional.
Data set [7] relates to HUVEC. Briefly: Inhibition of cell migration in HUVEC cells at 0.5 to 12.5 uM measured after 48 hrs by crystal violet staining based transwell invasion assay. Format: functional. The conditions noted are these: Homo sapiens, dose 0.5-12.5 µM.
Data set [8] has as its system PC-3. Briefly: Antitumor activity against human PC-3 cells xenografted in BALB/c mouse assessed as reduction in number of CD31-positive cells in tumor tissue at ip administrated once every 4 days for 24 days by DAPI staining based immunohistochemical analysis. Type of data set: functional, organism-based. The conditions noted are these: time 24.0 day.
The nature of data set [9]: Toxicity in BALB/c mouse xenografted with human PC-3 cells assessed as lung pathological change at 20 mg/kg,ip administrated once every 4 days for 24 days by hematoxylin and eosin staining based analysis. Format: organism-based. The conditions noted are these: in vivo, 576 h, time 24 day.
In data set [10] the target is T2, Son of sevenless homolog 1 (Homo sapiens) (UniProt Q07889).
T2 sequence (whole entry): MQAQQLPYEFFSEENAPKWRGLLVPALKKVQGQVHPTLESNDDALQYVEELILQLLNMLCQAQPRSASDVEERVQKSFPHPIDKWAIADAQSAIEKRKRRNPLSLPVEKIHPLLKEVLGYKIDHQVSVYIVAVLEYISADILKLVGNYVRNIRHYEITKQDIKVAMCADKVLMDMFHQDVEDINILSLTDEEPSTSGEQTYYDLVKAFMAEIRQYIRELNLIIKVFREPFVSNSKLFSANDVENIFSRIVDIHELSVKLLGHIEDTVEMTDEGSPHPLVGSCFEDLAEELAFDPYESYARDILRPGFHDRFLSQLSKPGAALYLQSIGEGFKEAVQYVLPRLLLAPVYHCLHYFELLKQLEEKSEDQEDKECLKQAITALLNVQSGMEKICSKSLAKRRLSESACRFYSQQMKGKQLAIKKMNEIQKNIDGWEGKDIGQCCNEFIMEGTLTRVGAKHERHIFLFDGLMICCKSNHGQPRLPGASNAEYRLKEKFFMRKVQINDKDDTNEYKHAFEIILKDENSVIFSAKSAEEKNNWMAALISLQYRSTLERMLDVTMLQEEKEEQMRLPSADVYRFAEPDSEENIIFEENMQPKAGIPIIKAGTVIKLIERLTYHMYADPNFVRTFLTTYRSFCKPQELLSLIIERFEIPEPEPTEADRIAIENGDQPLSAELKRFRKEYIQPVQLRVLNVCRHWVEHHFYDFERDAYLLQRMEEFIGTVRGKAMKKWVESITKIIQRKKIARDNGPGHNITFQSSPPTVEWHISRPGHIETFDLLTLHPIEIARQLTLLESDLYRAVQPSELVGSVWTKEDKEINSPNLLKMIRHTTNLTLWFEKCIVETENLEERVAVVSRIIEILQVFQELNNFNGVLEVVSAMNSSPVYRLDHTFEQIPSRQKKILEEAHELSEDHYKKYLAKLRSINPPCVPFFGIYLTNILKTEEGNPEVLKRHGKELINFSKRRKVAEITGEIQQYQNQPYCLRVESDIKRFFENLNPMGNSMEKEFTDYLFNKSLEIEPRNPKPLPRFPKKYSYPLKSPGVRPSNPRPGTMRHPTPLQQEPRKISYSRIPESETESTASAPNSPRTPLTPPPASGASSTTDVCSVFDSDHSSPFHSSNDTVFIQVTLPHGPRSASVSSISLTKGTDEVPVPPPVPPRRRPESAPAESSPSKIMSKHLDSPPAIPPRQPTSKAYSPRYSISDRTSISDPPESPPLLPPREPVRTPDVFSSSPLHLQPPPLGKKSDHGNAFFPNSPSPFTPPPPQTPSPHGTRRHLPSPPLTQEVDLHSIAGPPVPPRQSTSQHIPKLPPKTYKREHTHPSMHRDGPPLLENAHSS
Briefly: Inhibition of SOS1 in human PC-3 cells assessed as downregulation of ERK phosphorylation at 12.5 uM incubated for 15 mins by Western blotting analysis. Type of data set: cell-based.

In data set [11] the target is T2, Son of sevenless homolog 1 (Homo sapiens). Briefly: Inhibition of SOS1 in human PC-3 cells assessed as downregulation of ERK phosphorylation at 2.5 uM incubated for 15 mins by Western blotting analysis. Format: cell-based.
Data set [12] concerns PC-3. Nature of the data set: Induction of cell cycle arrest in human PC-3 cells assessed as downregulation of CDK4 expression by Western blotting analysis. Type of data set: functional, cell-based.
For data set [13], the system named is PC-3. Nature of the data set: Induction of apoptosis in human PC-3 cells assessed as viable cells at 2.5 uM by Annexin V-FITC staining based flow cytometry (reference value: 94.9%). Format: functional. The conditions noted are these: read-out: Activity.
Data set [14] has as its system PC-3. Nature of the data set: Antitumor activity against human PC-3 cells xenografted in BALB/c mouse assessed as reduction in tumor volume at 20 mg/kg,ip administrated once every 4 days for 24 days. Type of data set: functional, organism-based. The conditions noted are these: time 24.0 day.
Data set [15] has as its system PC-3. Nature of the data set: Induction of cell cycle arrest in human PC-3 cells assessed as accumulation of cells at G2 phase at 12.5 uM by PI staining based flow cytometry (reference value: 7.75%). Format: functional.
The subject of data set [16] is PC-3. Briefly: Antiproliferative activity against human PC-3 cells transfected with SOS1 shRNA assessed as inhibition of cell growth incubated for 72 hrs by MTT assay. The conditions noted are these: PC-3, 72 h. Format: functional, cell-based.
Data set [17] deals with NCI-H358. Briefly: Antiproliferative activity against human NCI-H358 cells harboring KRAS G12C mutant assessed as inhibition of cell growth incubated for 72 hrs by MTT assay. The conditions noted are these: NCI-H358, 72 h. Format: functional, cell-based.
The subject of data set [18] is PC-3. Nature of the data set: Induction of apoptosis in human PC-3 cells assessed as late apoptotic cells at 2.5 uM by Annexin V-FITC staining based flow cytometry (reference value: 1.93%). Type of data set: functional.
Data set [19] relates to PC-3. Nature of the data set: Antitumor activity against human PC-3 cells xenografted in BALB/c mouse assessed as reduction in number of Ki67-positive cells in tumor tissue at ip administrated once every 4 days for 24 days by DAPI staining based immunohistochemical analysis. Format: functional, organism-based. To be noted: time 24.0 day.
Data set [20] is described as follows: Toxicity in BALB/c mouse xenografted with human PC-3 cells assessed as liver pathological change at 20 mg/kg,ip administrated once every 4 days for 24 days by hematoxylin and eosin staining based analysis. Type of data set: organism-based. To be noted: in vivo, 576 h, time 24 day.
Data set [21] concerns PC-3. Briefly: Induction of cell cycle arrest in human PC-3 cells assessed as accumulation of cells at G1 phase at 2.5 uM by PI staining based flow cytometry (reference value: 75.66%). Format: functional.

Each structure is given as a SMILES string. Active and inactive are the calls of the source. The calls are words filed in the database; no cut-off is given here.

T1 sequence (P00533 whole entry): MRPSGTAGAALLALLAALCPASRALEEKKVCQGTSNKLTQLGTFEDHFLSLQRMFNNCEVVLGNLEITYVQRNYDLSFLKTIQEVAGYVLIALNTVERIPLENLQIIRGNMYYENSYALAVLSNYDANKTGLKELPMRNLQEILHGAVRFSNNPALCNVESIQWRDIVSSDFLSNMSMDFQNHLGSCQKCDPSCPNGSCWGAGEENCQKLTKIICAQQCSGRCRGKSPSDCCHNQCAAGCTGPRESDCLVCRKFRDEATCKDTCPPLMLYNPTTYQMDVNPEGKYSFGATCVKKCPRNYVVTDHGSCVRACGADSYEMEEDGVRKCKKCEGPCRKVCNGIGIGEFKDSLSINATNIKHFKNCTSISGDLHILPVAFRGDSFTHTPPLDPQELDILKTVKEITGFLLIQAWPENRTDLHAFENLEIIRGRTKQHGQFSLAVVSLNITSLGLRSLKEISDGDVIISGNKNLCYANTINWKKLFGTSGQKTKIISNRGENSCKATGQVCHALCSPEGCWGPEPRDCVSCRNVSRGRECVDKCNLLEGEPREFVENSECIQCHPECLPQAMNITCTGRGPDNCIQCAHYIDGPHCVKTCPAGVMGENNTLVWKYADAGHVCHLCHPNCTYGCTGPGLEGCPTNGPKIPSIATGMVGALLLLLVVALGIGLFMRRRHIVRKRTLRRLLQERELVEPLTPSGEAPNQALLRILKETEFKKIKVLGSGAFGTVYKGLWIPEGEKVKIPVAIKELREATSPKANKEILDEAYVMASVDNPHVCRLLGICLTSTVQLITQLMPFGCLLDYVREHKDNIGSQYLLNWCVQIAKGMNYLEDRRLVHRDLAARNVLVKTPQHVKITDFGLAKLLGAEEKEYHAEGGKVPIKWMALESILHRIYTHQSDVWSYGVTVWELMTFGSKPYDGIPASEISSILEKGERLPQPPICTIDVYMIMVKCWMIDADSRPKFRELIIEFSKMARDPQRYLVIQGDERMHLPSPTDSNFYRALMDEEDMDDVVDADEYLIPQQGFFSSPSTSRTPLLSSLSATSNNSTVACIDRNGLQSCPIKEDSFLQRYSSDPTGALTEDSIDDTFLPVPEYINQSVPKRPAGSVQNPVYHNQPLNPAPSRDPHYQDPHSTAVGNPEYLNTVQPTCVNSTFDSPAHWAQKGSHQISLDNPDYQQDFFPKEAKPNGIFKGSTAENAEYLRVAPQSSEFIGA

`COc1cc2ncnc(N[C@H](C)c3cccc(F)c3)c2cc1OC1CCOCC1`: the Activity result in [1] was “Non-Toxic”; in data set [6], 4.07%; in data set [8] it was “Dose-Dependent Effect”; in data set [9], “Toxic”; in data set [12], “Dose-Dependent Effect”; in data set [15], 5.95%. In addition, the Activity was 3.36% in data set [18], “Dose-Dependent Effect” in data set [19], “Toxic” in data set [20] and 81.85% in [21]. For the same compound, the IC50 in [2] is 0.00101 µM; in data set [4], 0.55 µM; in data set [16], 3.92 µM; in data set [17], 0.55 µM. In addition, the inhibition entry in [3], in data set [7], in [10] and in [11] was “Active” throughout. In addition, the result in data set [5] and in data set [14] was Active. Moreover, in data set [13], the viability at 2.5 µM was found to be 79.1%.
